# Where a name gives a salt, the structure may show the parent alone.
# Test system: NCI60 cancer cell lines
# Test: not given
# Conditions: cited from earlier work
row,Structure (SMILES),anticancer activity
1,"CN(C)CCNC(=O)c1cccn2c(=O)c3cc4ccccc4cc3nc12 [BMH-21, 12H-Benzo[g]pyrido[2,1-b]quinazoline-4-carboxamide, N-[2(dimethylamino)ethyl]-12-oxo]",anticancer activity

# Test system: RPA194
# Test: RPA194 immunofluorescence high-content imaging in A375 cells (Pol I inhibition)
# Type: cell-based
# Conditions: treated for 4 hours, top concentration 10 μM
# Description: Cell culture: A375 cells (CRL-1619, ATCC) were grown in DMEM (GIBCO) supplemented with 10% fetal bovine serum (GIBCO) in 5% CO2 at 37° C.
# Cell treatment and Imaging: 18 hours post-seeding in cell carrier black 384-well plates (PerkinElmer) at 15 000 cells/well, A375 cells were treated for 4 hours with a positive control or test compounds (9 serial semi-log dilutions, top concentration 10 μM). Upon treatment A375 cells were (i) fixed for 15 min at RT with 4% of paraformaldehyde, (ii) permeabilized for 20 min at RT with 0.1-0.5% of NP-40, (iii) incubated with primary antibodies at 4° C.: anti-RPA194 (1:1000-1:1250 dilution, sc-48385, Santa Cruz Biotechnology) and anti-gH2Ax (1:5000 dilution, 81299, Abcam or 1:4000, JBW302, Millipore) (iv) incubated for 1 h at RT with Hoechst (1:5000 dilution, H3570, ThermoFisher) and secondary antibodies: anti-mouse-AlexaFluor488 (1:2000 dilution, A11001, ThermoFisher) and anti-rabbit-AlexaFluor647 (1:2000 dilution, A21443, ThermoFisher) or goat anti-mouse AlexaFluor-594 (1:1000 dilution). Images were acquired on an Operetta CLS High-Content Analysis System (PerkinElmer) (40× objective; 9 fields/well) and processed using the Columbus Image Analysis System (PerkinElmer) or by using Molecular Devices ImageXpress Micro XLS High Content Imager and MetaXpress high-content acquisition and analysis software.
# In the table below, (+) is associated with a pIC50 5.02 to 5.8; (++) with pIC50 5.8 to 6.3; and plus sing (+++) with a pIC50 above 6.3.
row,Structure (SMILES),Activity Range (pIC50)
1,"Cc1cccc2c(=O)n3cccc(C(=O)NCCN4CCCC4)c3nc12 [Compound 117, 4-methyl-11-oxo-N-(2-(Pyrrolidin-1-Yl)ethyl)-11H-pyrido[2,1-b]quinazoline-6-carboxamide;hydrochloride]",++ ((++) with pIC50 5.8 to 6.3)
2,"O=C(NCCN1C[C@@H](O)[C@H](O)C1)c1cccn2c(=O)c3cc4c(cc3nc12)OC(F)(F)O4 [Compound 101, N-(2-((3R,4R)-3,4-dihydroxypyrrolidin-1-yl)ethyl)-2,2-difluoro-11-oxo-11H-[1,3]dioxolo[4,5-g]pyrido[2,1-b]quinazoline-6-carboxamide]",+ ((+) is associated with a pIC50 5.02 to 5.8)
3,"O=C(NCCN1CCCC1)c1cccn2c(=O)c3cc4c(cc3nc12)OCCO4 [Compound 113, 12-oxo-N-(2-(pyrrolidin-1-yl)ethyl)-2,3-dihydro-12H-[1,4]dioxino[2,3-2]pyrido[2,1-b]quinazoline-7-carboxamide; hydrochloride]",+ ((+) is associated with a pIC50 5.02 to 5.8)
4,"CN(C)C(C)(C)CNC(=O)c1cccn2c(=O)c3cc4c(cc3nc12)OC(F)(F)O4 [Compound 106, N-(2-(dimethylamino)-2-methylpropyl)-2,2-difluoro-11-oxo-11H-[1,3]dioxolo[4,5-g]pyrido[2,1-b]quinazoline-6-carboxamide; hydrochloride]",+ ((+) is associated with a pIC50 5.02 to 5.8)
5,"O=C(NCCN1CCCC1)c1cccn2c(=O)c3cc4c(cc3nc12)CCCC4 [Compound 112, 12-oxo-N-(2-(pyrrolidin-1-yl)ethyl)-7,9,10,12-tetrahydro-8H-benzo[g]pyrido[2,1-b]quinazoline-4-carboxamide; hydrochloride]",++ ((++) with pIC50 5.8 to 6.3)
6,"O=C1CCN(CCNC(=O)c2cccn3c(=O)c4cc5c(cc4nc23)OC(F)(F)O5)CC1 [Compound 103, 2,2-difluoro-11-oxo-N-(2-(4-oxopiperidin-1-yl)ethyl)-11H-[1,3]dioxolo[4,5-g]pyrido[2,1-b]quinazoline-6-carboxamide]",++ ((++) with pIC50 5.8 to 6.3)
7,"O=C(NCCN1CCCC1)c1cccn2c(=O)c3ccc4c(c3nc12)OC(F)(F)O4 [Compound 121, 2,2-difluoro-6-oxo-N-(2-(pyrrolidin-1-yl)ethyl)-6H-[1,3]dioxolo[4,5-h]pyrido[2,1-b]quinazoline-11-carboxamide;hydrochloride]",+ ((+) is associated with a pIC50 5.02 to 5.8)
8,"Cc1ccc2c(=O)n3cccc(C(=O)NCCN4CCCC4)c3nc2c1 [Compound 116, 3-methyl-11-oxo-N-(2-(pyrrolidin-1-yl)ethyl)-11H-pyrido[2,1-b]quinazoline-6-carboxamide;hydrochloride]",+ ((+) is associated with a pIC50 5.02 to 5.8)
9,"O=C(NCCN1CCCC1)c1cccn2c(=O)c3cc4c(cc3nc12)OC(F)(F)O4 [Compound 107, 2,2-difluoro-11-oxo-N-(2-(pyrrolidin-1-yl)ethyl)-11H-[1,3]dioxolo[4,5-2]pyrido[2,1-b]quinazoline-6-carboxamide; hydrochloride]",+++ ((+++) with a pIC50 above 6.3)
10,"Cc1cc2nc3c(C(=O)NCCN4CCCC4)cccn3c(=O)c2cc1C [Compound 110, 2,3-dimethyl-11-oxo-N-(2-(pyrrolidin-1-yl)ethyl)-11H-pyrido[2,1-b]quinazoline-6-carboxamide; hydrochloride]",++ ((++) with pIC50 5.8 to 6.3)
11,"CN(C)CCNC(=O)c1cccn2c(=O)c3cc4c(cc3nc12)CCCC4 [Compound 111, N-(2-(dimethylamino)ethyl)-12-oxo-7,9,10,12-tetrahydro-8H-benzo[g]pyrido[2,1-b]quinazoline-4-carboxamide; hydrochloride]",+ ((+) is associated with a pIC50 5.02 to 5.8)
12,"O=C(NCCN1CCC(O)CC1)c1cccn2c(=O)c3cc4c(cc3nc12)OC(F)(F)O4 [Compound 105, 2,2-difluoro-N-(2-(4-hydroxypiperidin-1-yl)ethyl)-11-oxo-11H-[1,3]dioxolo[4,5-g]pyrido[2,1-b]quinazoline-6-carboxamide; hydrochloride]",++ ((++) with pIC50 5.8 to 6.3)
13,"Cc1ccc2c(=O)n3cccc(C(=O)NCCN4CC[C@@H](O)C4)c3nc2c1C [Compound 115, (R)-N-(2-(3-hydroxypyrrolidin-1-yl)ethyl)-3,4-dimethyl-11-oxo-11H-pyrido[2,1-b]quinazoline-6-carboxamide; hydrochloride]",+++ ((+++) with a pIC50 above 6.3)
14,"CN(C)CCNC(=O)c1cccn2c(=O)c3cc4c(cc3nc12)OCCO4 [Compound 114, N-(2-(dimethylamino)ethyl)-12-oxo-2,3-dihydro-12H-[1,4]dioxino[2,3-g]pyrido[2,1-b]quinazoline-7-carboxamide; hydrochloride]",+ ((+) is associated with a pIC50 5.02 to 5.8)
15,"Cc1ccc2c(=O)n3cccc(C(=O)NCCN4CCCC4)c3nc2c1C [Compound 120, 3,4-dimethyl-11-oxo-N-(2-(pyrrolidin-1-yl)ethyl)-11H-pyrido[2,1-b]quinazoline-6-carboxamide; hydrochloride]",+++ ((+++) with a pIC50 above 6.3)
16,"O=C(NCCN1CCCC1)c1cccn2c(=O)c3cccc(-c4ccccc4)c3nc12 [Compound 118, 11-oxo-4-phenyl-N-(2-(pyrrolidin-1-yl)ethyl)-11H-pyrido[2,1-b]quinazoline-6-carboxamide; hydrochloride]",+ ((+) is associated with a pIC50 5.02 to 5.8)
17,"O=C(NCCN1CCCC1)c1cccn2c(=O)c3ccc(-c4ccccc4)cc3nc12 [Compound 119, 11-oxo-3-phenyl-N-(2-(pyrrolidin-1-yl)ethyl)-11H-pyrido[2,1-b]quinazoline-6-carboxamide; hydrochloride]",+ ((+) is associated with a pIC50 5.02 to 5.8)
18,"Cc1cc2nc3c(C(=O)NCCN(C)C)cccn3c(=O)c2cc1C [Compound 109, N-(2-(dimethylamino)ethyl)-2,3-dimethyl-11-oxo-11H-pyrido[2,1-b]quinazoline-6-carboxamide; hydrochloride]",++ ((++) with pIC50 5.8 to 6.3)
19,"O=C(NCCN1CCCC1)c1cccn2c(=O)c3cc4c(cc3nc12)OCO4 [Compound 108, 11-oxo-N-(2-(pyrrolidin-1-yl)ethyl)-11H-[1,3]dioxolo[4,5-g]pyrido[2,1-b]quinazoline-6-carboxamide; hydrochloride]",++ ((++) with pIC50 5.8 to 6.3)
20,"O=C(NCCN1CCC(O)C1)c1cccn2c(=O)c3cc4c(cc3nc12)OC(F)(F)O4 (centres unmarked) [Compound 102, 2,2-difluoro-N-(2-(3-hydroxypyrrolidin-1-yl)ethyl)-11-oxo-11H-[1,3]dioxolo[4,5-g]pyrido[2,1-b]quinazoline-6-carboxamide; hydrochloride]",+ ((+) is associated with a pIC50 5.02 to 5.8)
21,"CN(C)CCNC(=O)c1cccn2c(=O)c3cc4c(cc3nc12)OC(F)(F)O4 [Compound 104, N-(2-(dimethylamino)ethyl)-2,2-difluoro-11-oxo-11H-[1,3]dioxolo[4,5-g]pyrido[2,1-b]quinazoline-6-carboxamide; hydrochloride]",+ ((+) is associated with a pIC50 5.02 to 5.8)

# Test system: tumor burden
# Test: not given
# Conditions: mouse xenograft assays; cited from earlier work
row,Structure (SMILES),tumor burden
1,"CN(C)CCNC(=O)c1cccn2c(=O)c3cc4ccccc4cc3nc12 [BMH-21, 12H-Benzo[g]pyrido[2,1-b]quinazoline-4-carboxamide, N-[2(dimethylamino)ethyl]-12-oxo]",reduced tumor burden
